This note sets out measurements from patent US4324894A, “Aminoisoquinoline derivatives” (Egyt Gyogyszervegyeszeti Gyar, priority 1979, dated 1982).

Type in all cases: in vivo
The nature of data set [1]: Acute toxicity on mice, oral. The note with it: mouse, in vivo, po, mice weighing 18 to 22 g, orally. As to the method:
(§1) The acute toxicity of the aminoisoquinoline derivatives of the formula (I) were determined on mice weighing 18 to 22 g. The compounds were administered orally. The LD50 values are summarized in Table I. Toxicity data for meprobamate [2-methyl-2-propylpropane-1,3-dioldicarbamate] and phenylbutazon [4-butyl-1,2-diphenylpyrazolidine-3,5-dione] used as reference substances in the pharmacological tests are also given in Table I.

Data set [2] concerns narcosis developed with hexobarbital. Briefly: Potentiation of the narcosis developed with hexobarbital. The note with it: mice; for ED50: Mus musculus, po; for Therapeutic index: p.o., corresponds to LD50/ED50. As to the method:
The narcosis potentiating effects of the novel compounds having the formula (I) were studied by the method of Kaergaard and al., Arch. Int. […] The compounds studied were administered orally to groups of mice consisting of 6 animals each. To the control group, 20 ml/kg of 0.9 percent sodium chloride solution was orally administered. Then, the animals were treated with an intravenous dosage of 40 mg/kg of hexobarbital/5-(1-cyclohexenyl)-1,5-dimethylbarbituric acid/. According to our evaluation method, a 150 percent prolongation of sleeping period in relation to the control group was regarded as a positive response.
The number of animals with positive responses was related to the total number of animals treated.

A further data set has as its system mice. Briefly: Acute toxicity on mice, oral. To be noted: mice weighing 18 to 22 g, orally. The method, then:
as §1

[3] abbreviates: orally, hexobarbital 40 mg/kg intravenous, positive response = 150 percent prolongation of sleeping period in relation to control.

With `Nc1cc2ccccc2c(N2CCOCC2)n1` [Example 4, 1-morpholinyl-3-aminoisoquinoline], in data set [1], the 50% lethal dose (LD50) (commonly the dose at which mortality reaches 50%) is over 2000 mg/kg.
For the compound `Cc1c(N)nc(N2CCOCC2)c2ccccc12` [Example 1, 1-morpholinyl-3-amino-4-methylisoquinoline], the LD50 in data set [1] amounted to 2000 mg/kg. In addition, the ED50 (in general, the dose that gives a 50% effect, or the effect in half of the subjects) in data set [2] (setting [3]) came to 100 mg/kg. Further, the Therapeutic index in data set [2] is 20.
Regarding `Cc1c(N)nc(N2CCN(c3ccccn3)CC2)c2ccccc12` [Example 3, 1-/4'-(2"-pyridyl)-1'-piperazinyl/-3-amino-4-methylisoquinoline bis/ethanesulfonate/], in the data set on mice, the LD50 p.o. was 2000 mg/kg. In data set [2] (setting [3]), the ED50 p.o. was found to be 140 mg/kg. Also, in data set [2], the Therapeutic index was determined as 14.3.
`Nc1cc2ccccc2c(N2CCN(c3ccccn3)CC2)n1` [Example 6, 1-/4'-(2"-pyridyl)-piperazin-1'-yl/-3-aminoisoquinoline] returned an LD50 in data set [1] of 2000 mg/kg. In data set [2] (setting [3]), the median effective dose (ED50) is 140 mg/kg. Also, the Therapeutic index in data set [2] stood at 14.3.
For `CCCC(C)(COC(N)=O)COC(N)=O` [Meprobamate, 2-methyl-2-propylpropane-1,3-dioldicarbamate, reference compound], the ED50 in data set [2] (setting [3]) stood at 260 mg/kg. Further, the Therapeutic index in data set [2] is 4.2.
The compound `Cc1c(N)nc(N2CCN(c3ccccn3)CC2)c2ccccc12` [Example 2, 1-/4'-(2"-pyridyl)-1'-piperazinyl/-3-amino-4-methylisoquinoline] registered an LD50 in data set [1] of 2000 mg/kg. The ED50 in data set [2] (setting [3]) was 74 mg/kg. In addition, the Therapeutic index in data set [2] worked out at 27.
Consider `Nc1cc2ccccc2c(N2CCOCC2)n1` [Example 5, 1-morpholinyl-3-aminoisoquinoline ethanesulfonate], for which the LD50 p.o. in the data set with mice was found to be 2000 mg/kg.
